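Protocol summary: plate cells (96-well), add compound at 5 concentrations, incubate 48 h, interpolate endpoints linearly. GI50: concentration for 50% inhibition of growth. At the TGI there is no net growth.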
Experiments:
Assay in all cases: NCI tumour cell line growth inhibition, 48 h
[1] = test system: RXF 393 renal
[2] = test system: UACC-257 melanoma
[3] = test system: RPMI-8226 leukemia
[4] = test system: K-562 leukemia
[5] = test system: NCI-H522 lung
[6] = test system: HL-60(TB) leukemia
[7] = test system: A498 renal
[8] = test system: SK-MEL-2 melanoma
[9] = test system: SW-620 colon
[10] = test system: SF-268 CNS
[11] = test system: SNB-19 CNS
[12] = test system: UO-31 renal
[13] = test system: U251 CNS
[14] = test system: T-47D breast
[15] = test system: MALME-3M melanoma
[16] = test system: HCT-15 colon
[17] = test system: CAKI-1 renal
[18] = test system: KM12 colon
[19] = test system: MOLT-4 leukemia
[20] = test system: ACHN renal
[21] = test system: HCC-2998 colon
[22] = test system: SR leukemia
[23] = test system: SK-OV-3 ovarian
[24] = test system: NCI-H226 lung
[25] = test system: SK-MEL-28 melanoma
[26] = test system: PC-3 prostate
[27] = test system: CCRF-CEM leukemia
[28] = test system: LOX IMVI melanoma
[29] = test system: OVCAR-5 ovarian
[30] = test system: IGROV1 ovarian
[31] = test system: EKVX NSCLC
[32] = test system: HOP-62 NSCLC
[33] = test system: OVCAR-3 ovarian
[34] = test system: DU-145 prostate
[35] = test system: OVCAR-8 ovarian
[36] = test system: HOP-92 NSCLC
[37] = test system: M14 melanoma
[38] = test system: HS 578T breast
[39] = test system: BT-549 breast
[40] = test system: MDA-MB-231 breast
[41] = test system: SK-MEL-5 melanoma
[42] = test system: SF-539 CNS
[43] = test system: NCI-H460 lung
[44] = test system: MCF7 breast
[45] = test system: SF-295 CNS
[46] = test system: SN12C renal
[47] = test system: SNB-75 CNS
[48] = test system: NCI/ADR-RES ovarian
[49] = test system: HCT-116 colon
[50] = test system: HT29 colon
[51] = test system: MDA-MB-435
[52] = test system: UACC-62 melanoma
[53] = test system: OVCAR-4 ovarian
[54] = test system: TK-10 renal
[55] = test system: A549 NSCLC
[56] = test system: COLO 205 colon
[57] = test system: 786-0 renal

O=C(CN1CCOCC1)NNc1ncnc2ccccc12 gave a GI50 [1] of 2290 nM, a TGI [1] of 6.12 µM and a GI50 [2] of 14.1 µM. It also gave a TGI [2] of 28 µM, a GI50 [3] of 16.9 µM and a TGI [3] of 46.6 µM. It also gave a GI50 [4] of 3.18 µM, a TGI [4] of 12.9 µM and a GI50 [5] of 1410 nM. It also gave a TGI [5] of 2920 nM, a GI50 [6] of 5.17 µM and a TGI [6] of 26.2 µM. The GI50 [7] was > 100 µM, the TGI [7] was > 100 µM and the GI50 [8] was 15.6 µM. For the same compound, the TGI [8] was 30.5 µM, the GI50 [9] was 2480 nM and the TGI [9] was 6.47 µM. The GI50 [10] was 3.95 µM, the TGI [10] was 18.5 µM and the GI50 [11] was 16.2 µM. It also gave a TGI [11] of 30.7 µM, a GI50 [12] of 13.3 µM and a TGI [12] of 26.1 µM. The GI50 [13] was 13.9 µM, the TGI [13] was 27.5 µM and the GI50 [14] was 4.1 µM. For the same compound, the TGI [14] was 19.7 µM, the GI50 [15] was 1740 nM and the TGI [15] was 3.52 µM. It also gave a GI50 [16] of 11.9 µM, a TGI [16] of 26.4 µM and a GI50 [17] of 2760 nM. For the same compound, the GI50 [18] was 18.7 µM, the TGI [18] was 41.4 µM and the GI50 [19] was 15.6 µM. It also gave a TGI [19] of 56.9 µM, a GI50 [20] of 1820 nM and a TGI [20] of 3.21 µM. It also gave a GI50 [21] of 16.9 µM, a TGI [21] of 31.4 µM and a GI50 [22] of 15.7 µM. The TGI [22] was 54.7 µM, the GI50 [23] was 16.3 µM and the TGI [23] was 30.1 µM. The GI50 [24] was 15.8 µM, the TGI [24] was 39.7 µM and the GI50 [25] was 12.2 µM. The TGI [25] was 24.5 µM, the GI50 [26] was 14.7 µM and the TGI [26] was 30.4 µM. For the same compound, the GI50 [27] was 3.34 µM, the TGI [27] was 71 µM and the GI50 [28] was 1310 nM. The TGI [28] was 11.2 µM, the GI50 [29] was 12.9 µM and the TGI [29] was 25.9 µM. For the same compound, the GI50 [30] was 17 µM, the TGI [30] was 36.3 µM and the GI50 [31] was 14.2 µM. For the same compound, the TGI [31] was 28 µM, the GI50 [32] was 17.9 µM and the TGI [32] was 32.9 µM. The GI50 [33] was 3.78 µM, the TGI [33] was 14.1 µM and the GI50 [34] was 17.4 µM. It also gave a TGI [34] of 32.3 µM, a GI50 [35] of 17.1 µM and a TGI [35] of 33.1 µM. For the same compound, the GI50 [36] was 13.3 µM, the TGI [36] was 27.1 µM and the GI50 [37] was 10.1 µM. It also gave a TGI [37] of 25.2 µM, a GI50 [38] of 20.6 µM and a TGI [38] of 64.6 µM. The GI50 [39] was 13.8 µM, the TGI [39] was 28 µM and the GI50 [40] was 14.4 µM. The TGI [40] was 29.6 µM, the GI50 [41] was 18 µM and the TGI [41] was 33.3 µM. The GI50 [42] was 13.2 µM, the TGI [42] was 26 µM and the GI50 [43] was 19.1 µM. For the same compound, the TGI [43] was 38.9 µM, the GI50 [44] was 4.33 µM and the TGI [44] was 21.9 µM. For the same compound, the GI50 [45] was 19.5 µM, the TGI [45] was 34.4 µM and the GI50 [46] was 14.9 µM. For the same compound, the TGI [46] was 28.6 µM, the GI50 [47] was 16 µM and the TGI [47] was 30 µM. It also gave a GI50 [48] of 20.6 µM, a TGI [48] of 50.2 µM and a GI50 [49] of 3.14 µM. It also gave a TGI [49] of 12.3 µM, a GI50 [50] of 15.6 µM and a TGI [50] of 33.7 µM. The GI50 [51] was 13.7 µM, the TGI [51] was 27 µM and the GI50 [52] was 13.7 µM. The TGI [52] was 27.2 µM, the GI50 [53] was 1830 nM and the TGI [53] was 3.85 µM. For the same compound, the GI50 [54] was 21.5 µM, the TGI [54] was 36.3 µM and the GI50 [55] was 17.4 µM. For the same compound, the TGI [55] was 34.7 µM, the GI50 [56] was 2420 nM and the TGI [56] was 5.37 µM. It also gave a GI50 [57] of 2230 nM and a TGI [57] of 5.17 µM.
